Results as given in ChEMBL document CHEMBL3596179, “Structural development of stabilized helical peptides as inhibitors of estrogen receptor (ER)-mediated transcription” (Bioorg Med Chem, 2015).
Activity calls are given as the source filed them. The rule behind the calls is not given here. Positions of bridges follow the written chain, without caps; N, C: chain ends. Non-standard residues stand in square brackets, D forms with d. Residues, ends and D or L forms follow the SMILES beside them. ξ: configuration not given here. ξtBuAla = CC(C)(C)CC(N)C(=O)O; ξAbu = CCC(N)C(=O)O

How the values were obtained:
[1] = biological target: T1, Estrogen receptor (Homo sapiens, UniProt P03372)
T1 sequence (P03372 whole entry): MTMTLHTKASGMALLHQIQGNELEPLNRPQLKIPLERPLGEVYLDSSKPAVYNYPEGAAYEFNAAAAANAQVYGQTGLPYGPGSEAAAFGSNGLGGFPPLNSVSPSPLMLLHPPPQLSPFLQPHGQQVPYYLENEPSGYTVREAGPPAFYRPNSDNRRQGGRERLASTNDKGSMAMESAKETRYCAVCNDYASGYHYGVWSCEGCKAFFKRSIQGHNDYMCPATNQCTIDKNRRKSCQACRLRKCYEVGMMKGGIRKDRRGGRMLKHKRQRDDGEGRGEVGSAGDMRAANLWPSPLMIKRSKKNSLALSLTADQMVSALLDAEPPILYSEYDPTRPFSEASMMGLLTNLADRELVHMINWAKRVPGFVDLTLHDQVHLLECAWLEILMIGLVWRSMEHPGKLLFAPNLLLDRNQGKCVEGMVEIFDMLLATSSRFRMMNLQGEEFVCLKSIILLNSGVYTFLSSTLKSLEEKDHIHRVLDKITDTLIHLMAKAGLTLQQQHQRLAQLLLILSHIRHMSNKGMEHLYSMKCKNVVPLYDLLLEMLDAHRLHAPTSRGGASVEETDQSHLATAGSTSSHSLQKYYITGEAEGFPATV
Description: Inhibition of estrogen receptor alpha (unknown origin)-SRC1 coactivator interaction incubated for 1 hr by receptor cofactor assay system based method

[2] = test system: T47D; test: Drug uptake in human T47D cells at 1 uM incubated for 3 hrs by Hoechst 33342 dye based confocal laser scanning microscopy; format: ADME, cell-based
[3] = biological target: T2, Estrogen receptor (Homo sapiens) (UniProt P03372); test: Inhibition of estrogen receptor-mediated gene expression in human T47D cells assessed as reduction in estrogen-induced pS2 mRNA expression at 3 to 30 uM incubated for 24 hrs by qPCR method; format: cell-based
T2 sequence (whole entry): T1 sequence (P03372 whole entry)

[4] = biological target: T2, Estrogen receptor (Homo sapiens); test: Inhibition of estrogen receptor-mediated gene expression in human T47D cells assessed as reduction in estrogen-induced pS2 mRNA expression at 3 uM incubated for 24 hrs by qPCR method; format: cell-based
[5] = biological target: T2, Estrogen receptor (Homo sapiens); details: T47D, 10 uM
Description: Inhibition of estrogen receptor-mediated gene expression in human T47D cells assessed as reduction in estrogen-induced pS2 mRNA expression at 10 uM incubated for 24 hrs by qPCR method

Molecule | IC50 [1] [nM] | further results
C=CCC(NC(=O)[C@H](CC(C)C)NC(=O)[C@@H](NC(=O)[C@@H](CC=C)NC(=O)[C@@H](N)CCCNC(=N)N)[C@@H](C)CC)C(=O)N[C@@H](CCCNC(=N)N)C(=O)NC(CC(C)(C)C)C(=O)N[C@@H](CC(C)C)C(=O)N[C@@H](CCC(N)=O)C(N)=O (stereo not given in full) | > 1000 | 
CC[C@H](C)[C@@H]1NC(=O)[C@H](NC(=O)[C@H](CCCCN)NC(=O)c2ccc3c(c2)C2(OC3=O)c3ccc(O)cc3Oc3cc(O)ccc32)CSSC[C@@H](C(=O)N[C@@H](CCCNC(=N)N)C(=O)N[C@@H](CC(C)C)C(=O)N[C@@H](CC(C)C)C(=O)N[C@@H](CCC(N)=O)C(=O)NCC(=O)NCC(=O)NCC(=O)N[C@@H](CCCNC(=N)N)C(=O)N[C@@H](CCCNC(=N)N)C(=O)N[C@@H](CCCNC(=N)N)C(=O)N[C@@H](CCCNC(=N)N)C(=O)N[C@@H](CCCNC(=N)N)C(=O)N[C@@H](CCCNC(=N)N)C(=O)N[C@@H](CCCNC(=N)N)C(N)=O)NC(=O)[C@H](CC(C)C)NC1=O |  | Drug uptake [2]: Active
CC[C@H](C)[C@@H]1NC(=O)[C@H](NC(=O)[C@@H](N)CCCNC(=N)N)CSSC[C@@H](C(=O)N[C@@H](CCCNC(=N)N)C(=O)NC(CC(C)(C)C)C(=O)N[C@@H](CC(C)C)C(=O)N[C@@H](CCC(N)=O)C(N)=O)NC(=O)[C@H](CC(C)C)NC1=O (stereo not given in full) | 13 | 
CC[C@H](C)[C@@H]1NC(=O)[C@H](NC(=O)[C@H](CCCNC(=N)N)NC(=O)CNC(=O)CNC(=O)CNC(=O)[C@H](CCCNC(=N)N)NC(=O)[C@H](CCCNC(=N)N)NC(=O)[C@H](CCCNC(=N)N)NC(=O)[C@H](CCCNC(=N)N)NC(=O)[C@H](CCCNC(=N)N)NC(=O)[C@H](CCCNC(=N)N)NC(=O)[C@@H](N)CCCNC(=N)N)CSSC[C@@H](C(=O)N[C@@H](CCCNC(=N)N)C(=O)NC(CC(C)(C)C)C(=O)N[C@@H](CC(C)C)C(=O)N[C@@H](CCC(N)=O)C(N)=O)NC(=O)[C@H](CC(C)C)NC1=O (stereo not given in full) | > 1000 | inhibition [3]: inactive
CC[C@H](C)[C@@H]1NC(=O)[C@H](NC(=O)[C@@H](N)CCCCN)CSSC[C@@H](C(=O)N[C@@H](CCCNC(=N)N)C(=O)N[C@@H](CC(C)C)C(=O)N[C@@H](CC(C)C)C(=O)N[C@@H](CCC(N)=O)C(=O)NCC(=O)NCC(=O)NCC(=O)N[C@@H](CCCNC(=N)N)C(=O)N[C@@H](CCCNC(=N)N)C(=O)N[C@@H](CCCNC(=N)N)C(=O)N[C@@H](CCCNC(=N)N)C(=O)N[C@@H](CCCNC(=N)N)C(=O)N[C@@H](CCCNC(=N)N)C(=O)N[C@@H](CCCNC(=N)N)C(N)=O)NC(=O)[C@H](CC(C)C)NC1=O | 749 | inhibition [4]: 20%; inhibition [5]: 95%
CC[C@H](C)[C@@H]1NC(=O)[C@H](NC(=O)[C@@H](N)CCCNC(=N)N)C/C=C/C[C@@H](C(=O)N[C@@H](CCCNC(=N)N)C(=O)NC(CC(C)(C)C)C(=O)N[C@@H](CC(C)C)C(=O)N[C@@H](CCC(N)=O)C(N)=O)NC(=O)[C@H](CC(C)C)NC1=O (stereo not given in full) | 390 | 
CC[C@H](C)[C@@H]1NC(=O)[C@H](NC(=O)[C@@H](N)CCCNC(=N)N)CCCC[C@@H](C(=O)N[C@@H](CCCNC(=N)N)C(=O)NC(CC(C)(C)C)C(=O)N[C@@H](CC(C)C)C(=O)N[C@@H](CCC(N)=O)C(N)=O)NC(=O)[C@H](CC(C)C)NC1=O (stereo not given in full) | > 1000 | 
H-HKILHRLLQGGGRRRRRRR-NH2 | > 1000 | inhibition [3]: inactive
CC[C@H](C)[C@@H]1NC(=O)[C@H](NC(=O)[C@H](CCCCN)NC(=O)c2ccc3c(c2)C2(OC3=O)c3ccc(O)cc3Oc3cc(O)ccc32)CSSC[C@@H](C(=O)N[C@@H](CCCNC(=N)N)C(=O)N[C@@H](CC(C)C)C(=O)N[C@@H](CC(C)C)C(=O)N[C@@H](CCC(N)=O)C(N)=O)NC(=O)[C@H](CC(C)C)NC1=O |  | Drug uptake [2]: Not Active
N=C(N)NCCC[C@H](NC(=O)[C@H](CCCNC(=N)N)NC(=O)[C@H](CCCNC(=N)N)NC(=O)[C@H](CCCNC(=N)N)NC(=O)[C@H](CCCNC(=N)N)NC(=O)[C@H](CCCNC(=N)N)NC(=O)[C@H](CCCNC(=N)N)NC(=O)[C@@H](N)Cc1ccc(O)cc1)C(N)=O | > 1000 | inhibition [3]: inactive
H-HKILHRLLQ-NH2 | > 1000 | 
CCC(NC(=O)[C@H](CC(C)C)NC(=O)[C@@H](NC(=O)C(CC)NC(=O)[C@@H](N)CCCNC(=N)N)[C@@H](C)CC)C(=O)N[C@@H](CCCNC(=N)N)C(=O)NC(CC(C)(C)C)C(=O)N[C@@H](CC(C)C)C(=O)NCC(N)=O (stereo not given in full) (H-R[ξAbu]IL[ξAbu]R[ξtBuAla]LG-NH2) | 670 | 
CC[C@H](C)[C@@H]1NC(=O)[C@H](NC(=O)[C@@H](N)CCCCN)CSSC[C@@H](C(=O)N[C@@H](CCCNC(=N)N)C(=O)N[C@@H](CC(C)C)C(=O)N[C@@H](CC(C)C)C(=O)N[C@@H](CCC(N)=O)C(N)=O)NC(=O)[C@H](CC(C)C)NC1=O (H-K[dC]ILCRLLQ-NH2; disulfide 2-5) | 35 | 
CC[C@H](C)[C@@H]1NC(=O)[C@H](NC(=O)[C@@H](N)CCCNC(=N)N)CSSC[C@@H](C(=O)N[C@@H](CCCNC(=N)N)C(=O)NC(CC(C)(C)C)C(=O)N[C@@H](CC(C)C)C(=O)N[C@@H](CCC(N)=O)C(=O)NCC(=O)NCC(=O)NCC(=O)N[C@@H](CCCNC(=N)N)C(=O)N[C@@H](CCCNC(=N)N)C(=O)N[C@@H](CCCNC(=N)N)C(=O)N[C@@H](CCCNC(=N)N)C(=O)N[C@@H](CCCNC(=N)N)C(=O)N[C@@H](CCCNC(=N)N)C(=O)N[C@@H](CCCNC(=N)N)C(N)=O)NC(=O)[C@H](CC(C)C)NC1=O (stereo not given in full) | 94 | inhibition [4]: 87%
CC[C@H](C)[C@@H]1NC(=O)[C@H](NC(=O)[C@@H](N)CCCNC(=N)N)C/C=C/C[C@@H](C(=O)N[C@@H](CCCNC(=N)N)C(=O)NC(CC(C)(C)C)C(=O)N[C@@H](CC(C)C)C(=O)N[C@@H](CCC(N)=O)C(=O)NCC(=O)NCC(=O)NCC(=O)N[C@@H](CCCNC(=N)N)C(=O)N[C@@H](CCCNC(=N)N)C(=O)N[C@@H](CCCNC(=N)N)C(=O)N[C@@H](CCCNC(=N)N)C(=O)N[C@@H](CCCNC(=N)N)C(=O)N[C@@H](CCCNC(=N)N)C(=O)N[C@@H](CCCNC(=N)N)C(N)=O)NC(=O)[C@H](CC(C)C)NC1=O (stereo not given in full) |  | inhibition [3]: inactive
CCC(NC(=O)[C@@H](N)CCCNC(=N)N)C(=O)N[C@H](C(=O)N[C@@H](CC(C)C)C(=O)N[C@@H](Cc1cnc[nH]1)C(=O)N[C@@H](CCCNC(=N)N)C(=O)NC(CC(C)(C)C)C(=O)N[C@@H](CC(C)C)C(=O)N[C@@H](CCC(N)=O)C(N)=O)[C@@H](C)CC (stereo not given in full) (H-R[ξAbu]ILHR[ξtBuAla]LQ-NH2) | > 1000 | 
CC[C@H](C)[C@@H]1NC(=O)[C@H](NC(=O)[C@@H](N)CCCNC(=N)N)C/C=C\C[C@@H](C(=O)N[C@@H](CCCNC(=N)N)C(=O)NC(CC(C)(C)C)C(=O)N[C@@H](CC(C)C)C(=O)N[C@@H](CCC(N)=O)C(N)=O)NC(=O)[C@H](CC(C)C)NC1=O (stereo not given in full) | 110 | 
CC[C@H](C)[C@@H]1NC(=O)[C@H](NC(=O)[C@@H](N)CCCNC(=N)N)C/C=C\C[C@@H](C(=O)N[C@@H](CCCNC(=N)N)C(=O)NC(CC(C)(C)C)C(=O)N[C@@H](CC(C)C)C(=O)N[C@@H](CCC(N)=O)C(=O)NCC(=O)NCC(=O)NCC(=O)N[C@@H](CCCNC(=N)N)C(=O)N[C@@H](CCCNC(=N)N)C(=O)N[C@@H](CCCNC(=N)N)C(=O)N[C@@H](CCCNC(=N)N)C(=O)N[C@@H](CCCNC(=N)N)C(=O)N[C@@H](CCCNC(=N)N)C(=O)N[C@@H](CCCNC(=N)N)C(N)=O)NC(=O)[C@H](CC(C)C)NC1=O (stereo not given in full) |  | inhibition [3]: inactive
CCC(NC(=O)[C@H](CC(C)C)NC(=O)[C@@H](NC(=O)[C@H](Cc1cnc[nH]1)NC(=O)[C@@H](N)CCCNC(=N)N)[C@@H](C)CC)C(=O)N[C@@H](CCCNC(=N)N)C(=O)NC(CC(C)(C)C)C(=O)N[C@@H](CC(C)C)C(=O)N[C@@H](CCC(N)=O)C(N)=O (stereo not given in full) (H-RHIL[ξAbu]R[ξtBuAla]LQ-NH2) | 620 | 
